Assay results as given in PMC9019904, “AD Informer Set: Chemical tools to facilitate Alzheimer's disease drug discovery” (Alzheimer's & Dementia : Translational Research & Clinical …, 2022).

Tests used:
[1] = tested on: HMC3 (human microglia) cell line; assay: pHrodo-myelin phagocytosis/cell viability high content imaging assay: phagocytosis signal; format: cell-based
Method in brief: (§1)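 High content imaging, roughly 22 hours post pHrodo-myelin addition, recorded phagocytosis signal alongside viability in microglial lines BV2 (mouse) and HMC3 (human). Apoptosis tracked through intensity rise (early) and fall (later) among three extracted measurements.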

[2] = tested on: BV2 (mouse microglia) cell line; assay: as above; format: cell-based
Method in brief: as §1

[3] = tested on: HMC3 (human microglia) cell line; assay: pHrodo-myelin phagocytosis/cell viability high content imaging assay: viability (cell count, nuclear area, nuclear intensity); details: for 1. Cell count (% control) / 2. Nuclear Area (% Control) / 3. Nuclear DNA Intensity (% control): 48 hours treatment
Method in brief: (§2)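 Viability was read by high-content imaging as cell count per well and nuclear intensity per cell, in murine BV2 and human HMC3 microglial lines. Cells received a single 10 μM compound dose for 48 h, including 20 h with pHrodo-myelin. Duplicate means are expressed as % of untreated control.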

[4] = tested on: BV2 (mouse microglia) cell line; assay: as above; details: for 1. Cell count (% control) / 2. Nuclear Area (% Control) / 3. Nuclear DNA Intensity (% control): 48 hours treatment
Method in brief: as §2

[5] = HMC3, compound 10 uM, pHrodo-myelin
[6] = BV2, compound 10 uM, pHrodo-myelin
[7] = HMC3 cells, 10 uM compound, 48 hours treatment, pHrodo-myelin final 20 hours
[8] = BV2 cells, 10 uM compound, 48 hours treatment, pHrodo-myelin final 20 hours

SMILES | 4. Phagocytosis (% control) [1, 5] [% control] | 4. Phagocytosis (% control) [2, 6] [% control] | 1. Cell count (% control) ([3]; HMC3, compound 10 uM) | 2. Nuclear Area (% Control) ([3]; HMC3, compound 10 uM) | 3. Nuclear DNA Intensity (% control) ([3]; HMC3, compound 10 uM) | 1. Cell count (% control) ([4]; BV2, compound 10 uM) | 2. Nuclear Area (% Control) ([4]; BV2, compound 10 uM) | 3. Nuclear DNA Intensity (% control) ([4]; BV2, compound 10 uM) | 4. Phagocytosis (% control) [1, 7] [% control] | 4. Phagocytosis (% control) [2, 8] [% control] | 1. Cell count (% control) ([3]; HMC3 cells, 10 uM compound) | 2. Nuclear Area (% Control) ([3]; HMC3 cells, 10 uM compound) | 3. Nuclear DNA Intensity (% control) ([3]; HMC3 cells, 10 uM compound) | 1. Cell count (% control) ([4]; BV2 cells, 10 uM compound) | 2. Nuclear Area (% Control) ([4]; BV2 cells, 10 uM compound) | 3. Nuclear DNA Intensity (% control) ([4]; BV2 cells, 10 uM compound) | cytotoxicity in human microglial cells (cell count < 70% control) [3] | cytotoxicity in mouse microglial cells (cell count < 70% control) [4]
CC(C)CCN1c2nc(Nc3cc(F)c(O)c(F)c3)ncc2N(C)C(=O)C1C (centres unmarked) [UNC10302870A] | 178.1 | 123.8 | 49.2 | 127.1 | 123.8 | 15.1 | 106.7 | 111.0 |  |  |  |  |  |  |  |  |  | 
O=C(NC1CC1)C(=O)C(Cc1ccccc1)NC(=O)[C@H]1CCC(=O)N1Cc1ccccc1 (some centres unmarked) [UNC10302676A] |  |  |  |  |  |  |  |  | 95.9 | 108.4 | 123.8 | 98.7 | 104.1 | 127.5 | 105.0 | 102.8 |  | 
NCCCC[C@H](N[C@@H](CCc1ccccc1)C(=O)O)C(=O)N1CCC[C@H]1C(=O)O.O.O [UNC10302835A] | 70.9 | 121.2 | 155.8 | 99.6 | 95.8 | 119.8 | 103.4 | 99.2 |  |  |  |  |  |  |  |  |  | 
COS(=O)(=O)[O-].C[n+]1c2ccccc2nc2ccccc21 [UNC10302857A] |  |  |  |  |  |  |  |  | 0.031 | 27.9 | 60.7 | 61.5 | 197.5 | 16.9 | 123.3 | 59.8 |  | 
CCc1ccc(CCOc2ccc(CC3SC(=O)NC3=O)cc2)nc1.Cl (centres unmarked) [UNC10240376D] |  |  |  |  |  |  |  |  | 81.1 | 139.3 | 140.5 | 99.5 | 91.5 | 113.0 | 109.1 | 109.5 |  | 
Cc1cc(O)cc2c1[C@]1(C)CCC3C(C)(C)CCC[C@]3(C)[C@H]1C2 (some centres unmarked) [UNC10302703A] | 74.6 | 179.0 | 107.3 | 104.4 | 94.7 | 88.9 | 108.7 | 100.3 |  |  |  |  |  |  |  |  |  | 
CN(C)c1ccc2c(c1)Sc1cc(N(C)C)ccc1N2.CS(=O)(=O)O.CS(=O)(=O)O [UNC10303097A, reference compound] |  |  |  |  |  |  |  |  | 6.7 | 102.3 | 59.1 | 75.8 | 120.7 | 14.2 | 111.0 | 58.9 | manifested toxicity in both microglial cell lines | manifested toxicity in both microglial cell lines
CN1C(N)=N[C@](C)(c2cc(NC(=O)c3ccc(F)cn3)ccc2F)CS1(=O)=O [UNC10303092A] |  |  |  |  |  |  |  |  | 104.7 | 127.2 | 119.4 | 99.5 | 97.7 | 104.0 | 108.1 | 102.5 |  | 
CCOC(=O)c1sc(NC(=O)c2ccco2)c(SC#N)c1C [UNC10302907A] |  |  |  |  |  |  |  |  | 29.4 | 201.8 | 96.1 | 63.3 | 173.6 | 60.9 | 107.8 | 107.1 |  | 
CS[C@@]1(C(=O)Nc2ccc3[nH]nc(-c4ccc(OC(C)C)nc4)c3c2)CCN(CC(=O)N2CC=C(c3ccc(-c4ncn(C)n4)cc3)CC2)C1 [UNC10302902A] |  |  |  |  |  |  |  |  | 45.1 | 339.1 | 113.2 | 96.5 | 97.1 | 54.0 | 110.5 | 112.2 |  | 
O=C(N/N=C/c1ccc(Cl)cc1)c1ccccc1 [UNC10302877A] |  |  |  |  |  |  |  |  | 87.3 | 104.1 | 103.0 | 94.5 | 106.0 | 100.1 | 103.0 | 107.1 |  | 
CCCN(CC1CC1)c1nc(C)nc(Nc2c(Cl)cc(Cl)cc2Cl)c1Cl.Cl [UNC10303155A] | 86.3 | 323.0 | 120.1 | 96.1 | 105.3 | 40.3 | 117.9 | 98.5 |  |  |  |  |  |  |  |  |  | 
